Like-named read-outs stand apart in the source and are kept apart here. *1 amine or outer side, *2 acyl side, *3 side chain or, on linkers, in order; H or OH if unused. Where a SMILES comes first, the peptide text is derived from it. [ ]: non-standard residue; d: D form. The star is where a group is joined. d(pY) = N[C@H](Cc1ccc(OP(=O)(O)O)cc1)C(=O)O; pY = N[C@@H](Cc1ccc(OP(=O)(O)O)cc1)C(=O)O; d(pS) = N[C@H](COP(=O)(O)O)C(=O)O; Guanidinoacetyl = N=C(N)NCC(=O)*; X2 = Cn1cc(N[*:1])cc1C(=O)[*:2]; X1 = Cn1cc(N)cc1C(=O)*
What was measured:
HeLa cells = assay: MTT cell viability of HeLa cells
Protocol: We examined the cytotoxicity of the synthesized compounds by incubating them with HeLa cells because HeLa cells overexpress ALP and are widely available. By incubating 200 μM of each compound with HeLa cells for 24 hours, we employed MTT assay to determine the cell viability of the HeLa cells. […]
S3. Cel l culture and cell viability
HeLa cell line was purchased from American Type Culture Collection (ATCC, Manassas, VA, USA). HeLa cells were cultured in MEM medium with 100 U mL-1 penicillin and 100 μg mL-1 streptomycin. Cells were cultured at 37 °C in a humidified atmosphere of 5% CO 2.
MTT assay was used to determine the cytotoxicity of the compounds against HeLa cells.
Cells were seeded in 96-well plate at 1.0 × 10^5 cells/well for 24 hours followed by culture medium removal. Fresh culture medium containing different concentrations of compounds were then added. After incubated at 37 °C for 24/48/72 hours, the culture medium with compounds were replaced by fresh culture m edium plus 10 μL of MTT solution (5 mg/mL). After incubated at 37 °C for another 4 hours, 100 μL of SDS-HCl solution was added to stop the reduction and dissolve formazan formed. A DTX880 […]
Multimode Detector was used to measure the absorbance of each well at 595 nm, and cell viability was calculated as percentage relative to untreated cells. Data were […]

[1] = TEM morphology of peptide assemblies before and after ALP; assay type: physicochemical; details: 400 μM and 200 μM, PBS buffer pH 7.4
Text: Figure 3 A) TEM images of 1 before and after addition of ALP (0.5 U/mL) in PBS buffer (pH 7.4). Scale bar is 100 nm. Figure 3A was reprinted with permission from https://pubs.acs.org/doi/10.1021/bm5010355, Copyright 2014 American Chemical Society. This content is not subjected to CC-BY 4.0. Permission requests related to the material excerpted should be directed to the ACS. […] Scale bar is 200 nm.
Figure S1. Cell viability of HeLa cells treated with different compounds.
S4. TEM sample preparation
400-mesh copper grids coated with continuous thick carbon film (~35 nm) were glow discharged, on which 3 μL of samples were placed. After washed with ddH2O and uranyl acetate (UA), the sample-loaded grids were stained with UA. The residual UA was removed by filter paper and then air-dried.

[2] = Circular dichroism of assemblies before and after ALP; assay type: physicochemical; details: circular dichroism before and after ALP (Figure S34)
Text: In addition to the TEM images, we used circular dichroism (CD) to reveal the secondary structures of the assemblies before and after enzymatic action.

[3] = set-up: method as in PMID 25230147; details: TEM, ALP 0.5 U/mL, PBS buffer pH 7.4; cited from earlier work

Cn1cc(NC(=O)OC(C)(C)C)cc1C(=O)Nc1cc(C(=O)N[C@H](Cc2ccccc2)C(=O)N[C@H](Cc2ccccc2)C(=O)N[C@H](Cc2ccc(OP(=O)(O)O)cc2)C(=O)O)n(C)c1 [compound 9]
Cell viability of HeLa cells (HeLa cells; 24 h, 200 μM): about 70%

Cn1cc(NC(=O)c2cc(N)cn2C)cc1C(=O)NCC(=O)NCC(=O)NCC(=O)N[C@H](Cc1ccccc1)C(=O)N[C@H](Cc1ccccc1)C(=O)N[C@H](COP(=O)(O)O)C(=O)O [4a] (X1-[X2]GGG[dF][dF][d(pS)]-OH)
Cell viability of HeLa cells (HeLa cells; MTT, 200 μM, 24 h, 37 °C, absorbance 595 nm, relative to untreated cells, n = 3 wells): 69.2%
Cell viability of HeLa cells (HeLa cells; MTT, 400 μM, day 1, n = 3 wells): 72.3%
Inhibition of HeLa cell proliferation (in words) (HeLa cells; MTT, 20 to 400 μM, day 2 and 3): largely vanishes
Change of morphology of the assemblies after ALP ([1]; 1 U/mL ALP, 24 h): little change in the morphology
Morphology of the assemblies before ALP [1]: networks of nanoparticles
Change of CD signal upon ALP treatment [2]: merely slight changes

Cn1cc(NC(=O)c2cc(NC(=O)c3cc(N)cn3C)cn2C)cc1C(=O)NCC(=O)NCC(=O)NCC(=O)N[C@@H](Cc1ccccc1)C(=O)N[C@@H](Cc1ccccc1)C(=O)N[C@@H](Cc1ccc(OP(=O)(O)O)cc1)C(=O)O [3b] (X1-[X2][X2]GGGFF[pY]-OH)
Cell viability of HeLa cells (HeLa cells; 24 h, 200 μM): 97.2%

Cn1cc(NC(=O)CNC(=N)N)cc1C(=O)NCC(=O)NCC(=O)NCC(=O)N[C@H](Cc1ccccc1)C(=O)N[C@H](Cc1ccccc1)C(=O)N[C@H](Cc1ccc(OP(=O)(O)O)cc1)C(=O)O [10a] (Guanidinoacetyl-[X2]GGG[dF][dF][d(pY)]-OH)
Cell viability of HeLa cells (HeLa cells; 24 h, 200 μM): about 70%

O=C(Cc1ccc2ccccc2c1)N[C@H](Cc1ccccc1)C(=O)N[C@H](Cc1ccccc1)C(=O)N[C@H](Cc1ccc(OP(=O)(O)O)cc1)C(=O)O [compound 1, Nap-ffpy, reference compound]
Inhibition / compatibility with HeLa cells (in words) (HeLa cells; 400 μM): significantly inhibits
Inhibition of HeLa cell proliferation (in words) (HeLa cells; MTT, 200 μM, day 3): begins to reduce cell viability
Inhibition of HeLa cell proliferation (in words) (HeLa cells; MTT, concentrations lower than 100 μM, over 3 days): hardly inhibits
Change of CD signal upon ALP treatment [2]: significant change
Change of morphology of the assemblies after ALP [3]: morphological transition from nanoparticles of 1 to networks of nanofibers

Cn1cc(NC(=O)c2cc(N)cn2C)cc1C(=O)NCC(=O)NCC(=O)NCC(=O)N[C@@H](Cc1ccccc1)C(=O)N[C@@H](Cc1ccccc1)C(=O)N[C@@H](Cc1ccc(OP(=O)(O)O)cc1)C(=O)O [3a] (X1-[X2]GGGFF[pY]-OH)
Cell viability of HeLa cells (HeLa cells; 24 h, 200 μM): 86.0%

Cn1cc(NC(=O)c2cc(NC(=O)CNC(=N)N)cn2C)cc1C(=O)NCC(=O)NCC(=O)NCC(=O)N[C@H](Cc1ccccc1)C(=O)N[C@H](Cc1ccccc1)C(=O)N[C@H](Cc1ccc(OP(=O)(O)O)cc1)C(=O)O [10b] (Guanidinoacetyl-[X2][X2]GGG[dF][dF][d(pY)]-OH)
Cell viability of HeLa cells (HeLa cells; 24 h, 200 μM): about 70%

Cn1cc(N)cc1C(=O)Nc1cc(C(=O)Nc2cc(C(=O)N[C@H](Cc3ccccc3)C(=O)N[C@H](Cc3ccccc3)C(=O)N[C@H](Cc3ccc(OP(=O)(O)O)cc3)C(=O)O)n(C)c2)n(C)c1 [2b]
Cell viability of HeLa cells (HeLa cells; 24 h, 200 μM): 142.6%

Cn1cc(N)cc1C(=O)NCC(=O)NCC(=O)NCC(=O)N[C@H](Cc1ccccc1)C(=O)N[C@H](Cc1ccccc1)C(=O)N[C@H](Cc1ccc(OP(=O)(O)O)cc1)C(=O)O [2f, Py-GGGffpy] (X1-GGG[dF][dF][d(pY)]-OH)
Cell viability of HeLa cells (HeLa cells; 24 h, 200 μM): 92.8%

From article PMC8822458, “Synthesis and bioactivity of pyrrole-conjugated phosphopeptides” (Beilstein Journal of Organic Chemistry, 2022)
